Experimental data as given in ChEMBL document CHEMBL3046747, “Assessment of species specificity of moulting accelerating compounds in Lepidoptera: comparison of activity between Bombyx mori and Spodoptera littoralis by in vitro reporter and in vivo toxicity assays” (Pest Manag Sci, 2010).

Columns and labels:
[1] = target: T1, Ecdysone receptor (Bombyx mori, UniProt P49881); experiment: Antagonist activity at ecdysone receptor in Bombyx mori Bm5 cells assessed as tebufenozide-induced effect treated 24 hr before tebufenozide challenge measured after 24 hr by luciferase reporter gene assay; type: cell-based
T1 sequence (P49881 whole entry): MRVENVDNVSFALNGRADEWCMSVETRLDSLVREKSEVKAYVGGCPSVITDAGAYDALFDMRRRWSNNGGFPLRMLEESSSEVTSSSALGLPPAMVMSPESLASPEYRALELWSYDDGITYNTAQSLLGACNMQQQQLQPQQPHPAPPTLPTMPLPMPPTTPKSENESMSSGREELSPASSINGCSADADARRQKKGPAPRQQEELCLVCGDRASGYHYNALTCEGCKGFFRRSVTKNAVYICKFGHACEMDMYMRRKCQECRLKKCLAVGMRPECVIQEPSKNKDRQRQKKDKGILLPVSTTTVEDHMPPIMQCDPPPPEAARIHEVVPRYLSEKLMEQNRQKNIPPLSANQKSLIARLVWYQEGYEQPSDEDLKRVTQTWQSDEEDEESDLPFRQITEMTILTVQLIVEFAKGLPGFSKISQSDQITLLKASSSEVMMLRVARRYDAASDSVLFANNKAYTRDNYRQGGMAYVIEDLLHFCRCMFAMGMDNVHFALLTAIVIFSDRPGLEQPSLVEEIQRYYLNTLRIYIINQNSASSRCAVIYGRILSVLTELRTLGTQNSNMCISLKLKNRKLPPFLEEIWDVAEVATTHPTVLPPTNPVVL

[2] = Cytotoxicity against Bombyx mori Bm5 cells assessed as cell viability after 24 hr by MTT assay; type: cell-based; details: read-out: pLC50 (converted)
[3] = Ratio of IC50 for ecdysone receptor in Spodoptera littoralis Sl2 cells to LC50 for Spodoptera littoralis Sl2 cells
[4] = Ratio of IC50 for ecdysone receptor in Bombyx mori Bm5 cells to LC50 for Bombyx mori Bm5 cells
[5] = test system: Spodoptera littoralis; experiment: Cytotoxicity against Spodoptera littoralis Sl2 cells assessed as cell viability after 24 hr by MTT assay; details: read-out: pLC50 (converted)
[6] = target: T2, Ecdysone receptor (Spodoptera littoralis, UniProt E3UJZ5); experiment: Antagonist activity at ecdysone receptor in Spodoptera littoralis Sl2 cells assessed as tebufenozide-induced effect treated 24 hr before tebufenozide challenge measured after 24 hr by luciferase reporter gene assay; type: cell-based
T2 sequence (E3UJZ5 whole entry): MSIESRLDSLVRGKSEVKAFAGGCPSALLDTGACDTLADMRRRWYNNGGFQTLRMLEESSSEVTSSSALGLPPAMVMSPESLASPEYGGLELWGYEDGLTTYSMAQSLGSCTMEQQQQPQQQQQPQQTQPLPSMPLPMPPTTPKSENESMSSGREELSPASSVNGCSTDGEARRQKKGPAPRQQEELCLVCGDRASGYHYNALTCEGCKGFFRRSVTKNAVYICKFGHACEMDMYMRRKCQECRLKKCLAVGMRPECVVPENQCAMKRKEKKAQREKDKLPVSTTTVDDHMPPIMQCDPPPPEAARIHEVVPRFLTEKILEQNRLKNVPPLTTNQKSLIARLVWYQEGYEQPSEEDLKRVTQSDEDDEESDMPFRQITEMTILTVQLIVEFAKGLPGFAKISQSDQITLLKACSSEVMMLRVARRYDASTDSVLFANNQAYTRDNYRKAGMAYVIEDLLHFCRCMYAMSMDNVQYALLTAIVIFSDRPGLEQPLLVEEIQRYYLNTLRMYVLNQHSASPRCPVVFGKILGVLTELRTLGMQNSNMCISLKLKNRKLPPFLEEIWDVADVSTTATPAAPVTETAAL

[7] = target: T3, Ecdysone receptor (Bombyx mori) (UniProt P49881); experiment: Agonist activity at ecdysone receptor in Bombyx mori Bm5 cells after 24 hr by luciferase reporter gene assay relative to tebufenozide; type: cell-based
T3 sequence (whole entry): T1 sequence (P49881 whole entry)

[8] = test system: Spodoptera littoralis; experiment: Larvicidal activity against Spodoptera littoralis assessed as mortality applied topically after 1 week; type: functional
[9] = Ratio of LD50 for Spodoptera littoralis to LD50 for Bombyx mori; type: functional
[10] = Selectivity ratio of EC50 for ecdysone receptor in Bombyx mori Bm5 cells to EC50 for ecdysone receptor in Spodoptera littoralis Sl2 cells; type: cell-based
[11] = target: T1, Ecdysone receptor; experiment: Agonist activity at ecdysone receptor in Bombyx mori Bm5 cells after 24 hr by luciferase reporter gene assay; type: cell-based
[12] = target: T4, Ecdysone receptor (Spodoptera littoralis) (UniProt E3UJZ5); experiment: Agonist activity at ecdysone receptor in Spodoptera littoralis Sl2 cells after 24 hr by luciferase reporter gene assay relative to tebufenozide; type: cell-based
T4 sequence (whole entry): T2 sequence (E3UJZ5 whole entry)

[13] = target: T2, Ecdysone receptor; experiment: Agonist activity at ecdysone receptor in Spodoptera littoralis Sl2 cells after 24 hr by luciferase reporter gene assay; type: cell-based
[14] = test system: Bombyx mori; experiment: Larvicidal activity against Bombyx mori assessed as mortality applied topically after 1 week; type: functional

SMILES | IC50 [1] | CC50 at 24 h [2] | Ratio [3] | Ratio [4] | CC50 at 24 h [5] | IC50 [6] | Efficacy [7] | pLD50 [8] | Ratio [9] | Ratio EC50 [10] | EC50 ([11]; read-out: pEC50 (converted)) | Efficacy [12] | EC50 ([13]; read-out: pEC50 (converted)) | pLD50 [14] | pEC50 [11] | pEC50 ([13]; sl2) | EC50 ([11]; read-out: EC50) | EC50 ([13]; read-out: EC50)
Cc1ccc(NC2CCN(C(=O)c3ccc(Cl)cc3)c3ccccc32)cc1 (centres undefined) | 8.91 µM | 21.4 µM | 0.12 | 0.42 | 427 µM |  |  |  |  |  |  |  |  |  |  |  |  | 
Cc1ccc(N(C(=O)c2ccc(Cl)cc2)C2CC(C)N(C(=O)c3ccc(Cl)cc3)c3ccc(C)cc32)cc1 (centres undefined) | 13.5 µM | 7.08 µM | <0.85 | 1.91 | > 15.1 µM | 12.9 µM |  |  |  |  |  |  |  |  |  |  |  | 
Cc1cc(C)cc(C(=O)N(NC(=O)c2cccc(C)c2C)C(C)(C)C)c1 |  |  |  |  |  |  | 82% | 6.44 | 7.08 | 0.68 | 0.011 µM | 63% | 0.0162 µM | 7.29 |  |  |  | 
Cc1cc(C)cc(C(=O)N(NC(=O)c2ccc3c(c2C)CCCO3)C(C)(C)C)c1 [CHROMAFENOZIDE] |  |  |  |  |  |  | 98% | 7.53 | 1.12 | 0.38 | 0.001 µM | 103% | 0.00263 µM | 7.55 |  |  |  | 
CC(C)(C)N(NC(=O)c1ccc(Br)cc1)C(=O)c1ccccc1Cl |  |  |  |  |  |  | 106% | <5.39 | > 7.59 | 0.34 | 0.151 µM | 77% | 0.437 µM | 6.27 |  |  |  | 
Cc1cc(C)cc(C(=O)N(NC(=O)c2ccccc2)C(C)(C)C)c1 |  |  |  |  |  |  | 118% | <5.49 | > 3.09 | 0.39 | 0.2 µM | 75% | 0.501 µM | 5.98 |  |  |  | 
Cc1cc(C)cc(C(=O)C2(NC(=O)C(F)(F)F)CCCCC2)c1 | 67.6 µM | 234 µM | <0.04 | 0.29 | > 501 µM | 16.2 µM | 6% |  |  |  |  | 17% |  |  | > 4 | > 4 |  | 
CC1CC(Nc2ccc(F)cc2)c2cc(F)ccc2N1C(=O)c1ccc(Cl)cc1 (centres undefined) |  | 162 µM |  |  | > 501 µM |  | 59% |  |  |  |  | 64% |  |  |  |  | 55 µM | 60 µM
CC(C)(C)N(NC(=O)c1ccccc1)C(=O)c1ccccc1 [RH-5849] |  |  |  |  |  |  | 87% | 4.75 | 17.8 | 0.34 | 0.437 µM | 91% | 1.29 µM | 5.55 |  |  |  | 
CC(C)(C)N(NC(=O)c1cccc(Cl)c1)C(=O)c1ccccc1Cl |  |  |  |  |  |  | 119% | <5.44 | > 2.4 | 0.18 | 0.309 µM | 75% | 1.7 µM | 5.82 |  |  |  | 
Cc1ccc(NC2CC(C)N(C(=O)c3ccc(Cl)cc3)c3ccc(C)cc32)cc1 (centres undefined) | 14.8 µM | 34.7 µM | <0.16 | 0.43 | > 501 µM | 79.4 µM |  |  |  |  |  |  |  |  |  |  |  | 
Cc1ccc(NC2CCN(C(=O)c3ccc(Cl)cc3)CC2)cc1 | 2.24 µM | < 5.01 µM | 0.55 |  | 27.5 µM | 15.1 µM |  |  |  |  |  |  |  |  |  |  |  | 
Cc1ccccc1C(=O)NN(C(=O)c1ccccc1Cl)C(C)(C)C |  |  |  |  |  |  | 98% | <5.46 | > 17 | 0.3 | 0.129 µM | 124% | 0.437 µM | 6.69 |  |  |  | 
